ChEMBL document CHEMBL4393668, “Discovery and Characterization of XY101, a Potent, Selective, and Orally Bioavailable RORγ Inverse Agonist for Treatment of Castration-Resistant Prostate Cancer” (J Med Chem, 2019)

How the values were obtained:
[1] = biological target: T1, Nuclear receptor ROR-gamma (Homo sapiens, UniProt P51449); assay: Inverse agonist activity at Gal4-fused RORgamma LBD (unknown origin) expressed in 293T cells measured after 24 hrs by dual-luciferase reporter gene assay; assay type: cell-based
T1 sequence (P51449 whole entry): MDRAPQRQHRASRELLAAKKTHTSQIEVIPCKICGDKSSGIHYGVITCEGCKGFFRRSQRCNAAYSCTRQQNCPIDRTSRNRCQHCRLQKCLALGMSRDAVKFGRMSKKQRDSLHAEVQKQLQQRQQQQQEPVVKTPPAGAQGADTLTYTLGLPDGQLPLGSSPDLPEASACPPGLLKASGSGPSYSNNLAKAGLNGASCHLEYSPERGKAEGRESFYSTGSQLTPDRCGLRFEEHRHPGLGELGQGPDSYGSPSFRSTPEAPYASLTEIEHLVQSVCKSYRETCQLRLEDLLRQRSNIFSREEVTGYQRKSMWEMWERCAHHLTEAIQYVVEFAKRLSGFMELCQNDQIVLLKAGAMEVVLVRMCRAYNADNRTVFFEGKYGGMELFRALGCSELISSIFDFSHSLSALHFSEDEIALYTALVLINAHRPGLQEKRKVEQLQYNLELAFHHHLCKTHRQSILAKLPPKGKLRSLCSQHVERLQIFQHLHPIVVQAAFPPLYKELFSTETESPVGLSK

[2] = biological target: T2, Nuclear receptor ROR-gamma (Homo sapiens) (UniProt P51449)
T2 sequence (whole entry): T1 sequence (P51449 whole entry)

[3] = biological target: T2, Nuclear receptor ROR-gamma (Homo sapiens); assay: Inverse agonist activity at Gal4-fused RORgamma LBD (unknown origin) expressed in 293T cells measured after 24 hrs by dual-luciferase reporter gene assay relative to control; assay type: cell-based
[4] = biological target: T3, Nuclear receptor ROR-beta (Homo sapiens, UniProt Q92753)
T3 sequence (Q92753 whole entry): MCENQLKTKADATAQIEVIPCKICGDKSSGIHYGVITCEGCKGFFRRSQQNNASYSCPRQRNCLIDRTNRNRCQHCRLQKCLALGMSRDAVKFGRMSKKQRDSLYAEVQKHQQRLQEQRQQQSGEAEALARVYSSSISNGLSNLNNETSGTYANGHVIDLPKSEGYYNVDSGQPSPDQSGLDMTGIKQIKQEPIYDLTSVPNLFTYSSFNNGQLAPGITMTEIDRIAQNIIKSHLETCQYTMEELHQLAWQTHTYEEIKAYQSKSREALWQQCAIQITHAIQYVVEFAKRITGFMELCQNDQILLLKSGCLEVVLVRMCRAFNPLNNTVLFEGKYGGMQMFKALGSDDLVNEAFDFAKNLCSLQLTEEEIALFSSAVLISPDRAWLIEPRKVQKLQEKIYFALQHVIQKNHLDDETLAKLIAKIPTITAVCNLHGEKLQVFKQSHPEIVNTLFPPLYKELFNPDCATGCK

[5] = biological target: T4, Oxysterols receptor LXR-alpha (Homo sapiens, UniProt Q13133)
T4 sequence (Q13133 whole entry): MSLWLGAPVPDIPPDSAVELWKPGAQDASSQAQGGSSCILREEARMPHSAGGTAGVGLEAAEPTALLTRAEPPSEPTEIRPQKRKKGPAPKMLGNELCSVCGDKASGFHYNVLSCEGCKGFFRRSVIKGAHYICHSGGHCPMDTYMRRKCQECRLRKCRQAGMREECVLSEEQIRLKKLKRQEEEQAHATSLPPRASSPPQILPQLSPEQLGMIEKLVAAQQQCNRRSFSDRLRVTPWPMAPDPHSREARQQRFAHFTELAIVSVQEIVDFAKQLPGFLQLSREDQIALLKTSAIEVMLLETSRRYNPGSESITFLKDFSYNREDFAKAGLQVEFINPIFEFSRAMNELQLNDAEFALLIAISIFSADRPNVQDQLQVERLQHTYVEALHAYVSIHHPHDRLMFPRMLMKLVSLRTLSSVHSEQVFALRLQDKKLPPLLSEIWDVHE

Bile acid receptor [6] = biological target: T5, Bile acid receptor (Homo sapiens, UniProt Q96RI1)
T5 sequence (Q96RI1 whole entry): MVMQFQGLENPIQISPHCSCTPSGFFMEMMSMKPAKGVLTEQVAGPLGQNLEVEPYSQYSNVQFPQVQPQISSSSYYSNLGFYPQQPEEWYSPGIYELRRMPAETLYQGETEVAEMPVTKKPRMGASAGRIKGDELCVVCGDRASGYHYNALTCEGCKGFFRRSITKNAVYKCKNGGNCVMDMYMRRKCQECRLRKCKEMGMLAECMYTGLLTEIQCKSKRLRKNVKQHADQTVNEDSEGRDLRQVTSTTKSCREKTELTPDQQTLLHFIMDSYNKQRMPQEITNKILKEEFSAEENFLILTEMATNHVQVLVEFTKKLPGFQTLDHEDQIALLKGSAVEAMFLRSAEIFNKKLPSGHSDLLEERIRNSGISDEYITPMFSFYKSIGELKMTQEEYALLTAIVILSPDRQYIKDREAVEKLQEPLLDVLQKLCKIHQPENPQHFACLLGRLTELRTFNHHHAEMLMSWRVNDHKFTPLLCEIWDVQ

[7] = rat, in vivo, iv, 2 mg/kg
Description: Apparent volume of distribution in Sprague-Dawley rat at 2 mg/kg, iv

in vivo [8] = settings: Sprague-Dawley, rat, iv, 2 mg/kg
in vivo [9] = settings: Sprague-Dawley, rat, iv, 2 mg/kg; remark: listed apart in the source
in vivo [10] = settings: Sprague-Dawley, rat, iv, 2 mg/kg; remark: listed apart in the source
in vivo [11] = settings: Sprague-Dawley, rat, iv, 2 mg/kg; remark: listed apart in the source
Description: Half life in Sprague-Dawley rat at 2 mg/kg, iv

in vivo [12] = settings: Sprague-Dawley, rat, po, 10 mg/kg
in vivo [13] = settings: Sprague-Dawley, rat, po, 10 mg/kg; remark: listed apart in the source
in vivo [14] = settings: Sprague-Dawley, rat, po, 10 mg/kg; remark: listed apart in the source
in vivo [15] = settings: Sprague-Dawley, rat, po, 10 mg/kg; remark: listed apart in the source
in vitro = settings: rat, liver microsomes
Description: Stability in rat liver microsomes assessed as parent compound remaining at 10 uM measured after 60 mins by LC-MS/MS analysis

[16] = biological target: T6, Bile acid receptor (Homo sapiens) (UniProt Q96RI1); assay: Inverse agonist activity at Gal4-fused FXR LBD (unknown origin) expressed in 293T cells measured after 24 hrs by dual-luciferase reporter gene assay relative to control; assay type: cell-based
T6 sequence (whole entry): T5 sequence (Q96RI1 whole entry)

[17] = biological target: T1, Nuclear receptor ROR-gamma; assay: Inverse agonist activity at human N-terminal His6-tagged RORgamma (262 to 507 residues) expressed in Escherichia coli BL21 (DE3) assessed as inhibition of biotinylated co-activator SRC1-4 peptide recruitment by alphascreen assay
[18] = biological target: T7, Nuclear receptor ROR-alpha (Homo sapiens, UniProt P35398)
T7 sequence (P35398 whole entry): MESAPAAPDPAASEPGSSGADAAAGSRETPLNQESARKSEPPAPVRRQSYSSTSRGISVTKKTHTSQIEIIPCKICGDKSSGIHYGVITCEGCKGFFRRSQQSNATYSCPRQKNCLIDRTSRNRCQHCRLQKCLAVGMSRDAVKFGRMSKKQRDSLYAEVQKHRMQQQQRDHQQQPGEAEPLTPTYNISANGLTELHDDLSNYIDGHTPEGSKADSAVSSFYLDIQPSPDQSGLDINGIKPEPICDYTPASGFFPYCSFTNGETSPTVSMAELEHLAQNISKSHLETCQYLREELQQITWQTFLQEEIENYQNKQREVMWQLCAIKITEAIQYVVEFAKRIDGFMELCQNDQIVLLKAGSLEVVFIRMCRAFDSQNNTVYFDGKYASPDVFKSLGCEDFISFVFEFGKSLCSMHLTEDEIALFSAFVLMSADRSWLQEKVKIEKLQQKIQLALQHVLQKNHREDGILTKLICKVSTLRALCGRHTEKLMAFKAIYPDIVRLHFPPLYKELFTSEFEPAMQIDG

Bile acid receptor [19] = biological target: T5, Bile acid receptor; remark: listed apart in the source
[20] = biological target: T7, Nuclear receptor ROR-alpha; remark: listed apart in the source
in vivo [21] = settings: Sprague-Dawley, rat, iv, 2 mg/kg; remark: listed apart in the source
in vivo [22] = settings: Sprague-Dawley, rat, po, 10 mg/kg; remark: listed apart in the source
in vivo [23] = settings: Sprague-Dawley, rat, po, 10 mg/kg; remark: listed apart in the source
Description: Half life in Sprague-Dawley rat at 10 mg/kg, po

O=[N+]([O-])c1ccc(CS(=O)(=O)Nc2ccc(-c3ccc(C(O)(C(F)(F)F)C(F)(F)F)cc3F)cc2)cc1
IC50 [1]: 2220 nM
ΔTm [2]: 1.5 °C

O=C(CCCC1CCCCC1)Nc1ccc(-c2ccc(C(O)(C(F)(F)F)C(F)(F)F)cc2F)cc1
IC50 [1]: 1080 nM
ΔTm [2]: 6.5 °C

Nc1ccccc1CC(=O)Nc1ccc(-c2ccc(C(O)(C(F)(F)F)C(F)(F)F)cc2F)cc1
ΔTm [2]: 1.5 °C

CS(=O)(=O)c1ccc(CS(=O)(=O)Nc2ccc(-c3ccc(C(O)(C(F)(F)F)C(F)(F)F)cc3F)cc2)cc1
IC50 [1]: 7760 nM
ΔTm [2]: 1 °C

CCCCC(=O)Nc1ccc(-c2ccc(C(O)(C(F)(F)F)C(F)(F)F)cc2F)cc1
ΔTm [2]: 6.3 °C

O=C(O)c1ccc(CS(=O)(=O)Nc2ccc(-c3ccc(C(O)(C(F)(F)F)C(F)(F)F)cc3F)cc2)cc1
Activity [3]: 23%
ΔTm [2]: 0 °C

CC(=O)CCCC(=O)Nc1ccc(-c2ccc(C(O)(C(F)(F)F)C(F)(F)F)cc2F)cc1
IC50 [1]: 1520 nM
ΔTm [2]: 5 °C

O=C(CCC(F)(F)F)Nc1ccc(-c2ccc(C(O)(C(F)(F)F)C(F)(F)F)cc2F)cc1
IC50 [1]: 3080 nM
ΔTm [2]: 7.8 °C

O=C(Cc1ccccc1[N+](=O)[O-])Nc1ccc(-c2ccc(C(O)(C(F)(F)F)C(F)(F)F)cc2F)cc1
ΔTm [2]: 4.2 °C
IC50 [4]: Not Active
IC50 [5]: Not Active
IC50 (Bile acid receptor [6]): Not Active
Vz [7]: 3425 mg/kg
Cmax (in vivo [8]): 839 ng/mL
AUC(0-t) (in vivo [9]): 3340 ng·h/mL
AUC(0-inf) (in vivo [10]): 6440 ng·h/mL
half-life (in vivo [11]): 7.67 h
Cmax (in vivo [12]): 721 ng/mL
Tmax (in vivo [13]): 8 h
AUC(0-t) (in vivo [14]): 3220 ng·h/mL
bioavailability (in vivo [15]): 19%
remaining at 1 h, 10 µM (in vitro): 79%

CCCCCCC(=O)Nc1ccc(-c2ccc(C(O)(C(F)(F)F)C(F)(F)F)cc2F)cc1
IC50 [1]: 820 nM
%max [16]: 93%
IC50 [17]: 5310 nM
IC50 [18]: 1740 nM
IC50 (Bile acid receptor [19]): 1250 nM
ΔTm [2]: 5.8 °C
IC50 [4]: Not Active
IC50 [5]: Not Active

NC(=O)c1ccc(CS(=O)(=O)Nc2ccc(-c3ccc(C(O)(C(F)(F)F)C(F)(F)F)cc3F)cc2)cc1
IC50 [1]: 8720 nM
ΔTm [2]: 0 °C

CNC(=O)c1ccc(CS(=O)(=O)Nc2ccc(-c3ccc(C(O)(C(F)(F)F)C(F)(F)F)cc3F)cc2)cc1
IC50 [1]: 8050 nM
ΔTm [2]: 0 °C

CS(=O)(=O)c1ccc(CC(=O)Nc2ccc(-c3ccc(C(O)(C(F)(F)F)C(F)(F)F)cc3F)cc2)cc1
ΔTm [2]: 7.8 °C
IC50 [20]: Not Active
IC50 [4]: Not Active
IC50 [5]: Not Active
IC50 (Bile acid receptor [6]): Not Active
Vz [7]: 3544 mg/kg
Cmax (in vivo [8]): 980 ng/mL
Tmax (in vivo [21]): 4.8 min
AUC(0-t) (in vivo [9]): 7660 ng·h/mL
AUC(0-inf) (in vivo [10]): 10400 ng·h/mL
half-life (in vivo [11]): 12.7 h
Cmax (in vivo [12]): 1420 ng/mL
AUC(0-t) (in vivo [14]): 21600 ng·h/mL
bioavailability (in vivo [15]): 52%
AUC(0-inf) (in vivo [22]): 24500 ng·h/mL
half-life (in vivo [23]): 8.67 h
remaining at 1 h, 10 µM (in vitro): 78%
